Measured values taken from ChEMBL document CHEMBL1649119, “Daptomycin pharmacokinetics in adult oncology patients with neutropenic fever” (Antimicrob Agents Chemother, 2009).
≈ marks a conversion by molar mass, not a printed value.

Tests used:
[1] = Half life in healthy human subjects at 8 mg/kg, iv administered as 30 mins infusion every 24 hrs measured on day 1; type: ADME, organism-based; parameters: dose 8 mg/kg, route intravenous; details: in vivo
[2] = AUC (0 to infinity) in adult human with hepatic impairment at 6 mg/kg, iv administered as single dose 30 mins infusion; type: ADME, organism-based; parameters: time infinity, dose 6 mg/kg, route intravenous; details: plasma
[3] = AUC (0 to infinity) in morbidly obese adult human at 4 mg/kg, iv administered as single dose 30 mins infusion; type: ADME, organism-based; parameters: time infinity, dose 4 mg/kg, route intravenous; details: plasma
[4] = Apparent volume of distribution during terminal phase in healthy human subjects at 8 mg/kg, iv administered as 30 mins infusion every 24 hrs measured on day 4; type: ADME, organism-based; parameters: dose 8 mg/kg, route intravenous; details: in vivo
[5] = Cmax in healthy human subjects at 8 mg/kg, iv administered as 30 mins infusion every 24 hrs measured on day 1; type: ADME, organism-based; parameters: dose 8 mg/kg, route intravenous; details: in vivo
[6] = Clearance in healthy human subjects at 8 mg/kg, iv administered as 30 mins infusion every 24 hrs measured on day 1; type: ADME, organism-based; parameters: dose 8 mg/kg, route intravenous; details: in vivo
[7] = Clearance in adult human with hepatic impairment at 6 mg/kg, iv administered as single dose 30 mins infusion; type: ADME, organism-based, Liver; parameters: dose 6 mg/kg, route intravenous; details: in vivo
[8] = Half life in healthy human subjects at 8 mg/kg, iv administered as 30 mins infusion every 24 hrs measured on day 4; type: ADME, organism-based; parameters: dose 8 mg/kg, route intravenous; details: in vivo
[9] = Volume of distribution at steady state in moderately obese adult human at 4 mg/kg, iv administered as single dose 30 mins infusion; type: ADME, organism-based; parameters: dose 4 mg/kg, route intravenous; details: in vivo, read-out: Vdss
[10] = Plasma concentration in morbidly obese adult human at 4 mg/kg, iv administered as single dose 30 mins infusion measured after 24 hrs; type: ADME, organism-based; parameters: dose 4 mg/kg, route intravenous
[11] = Half life in old healthy human at 4 mg/kg, iv administered as single dose 30 mins infusion; type: ADME, organism-based; parameters: dose 4 mg/kg, route intravenous; details: in vivo
[12] = Half life in healthy human at 6 mg/kg, iv administered as 30 mins infusion every 24 hrs measured on day 1; type: ADME, organism-based; parameters: dose 6 mg/kg, route intravenous; details: in vivo
[13] = Clearance in healthy human at 6 mg/kg, iv administered as 30 mins infusion every 24 hrs measured on day 1; type: ADME, organism-based; parameters: dose 6 mg/kg, route intravenous; details: in vivo
[14] = Volume of distribution at steady state in adult human subjects at 6 mg/kg, iv administered as single dose 30 mins infusion; type: ADME, organism-based; parameters: dose 6 mg/kg, route intravenous; details: in vivo, read-out: Vdss
[15] = Apparent volume of distribution during terminal phase in healthy human subjects at 12 mg/kg, iv administered as 30 mins infusion every 24 hrs measured on day 14; type: ADME, organism-based; parameters: dose 12 mg/kg, route intravenous; details: in vivo
[16] = Half life in nonobese adult human at 4 mg/kg, iv administered as single dose 30 mins infusion; type: ADME, organism-based; parameters: dose 4 mg/kg, route intravenous; details: in vivo
Homo sapiens [17] = assay: Apparent volume of distribution during terminal phase in healthy human subjects at 6 mg/kg, iv administered as 30 mins infusion every 24 hrs measured on day 1; type: ADME, organism-based; parameters: dose 6 mg/kg, route intravenous; details: in vivo
[18] = Volume of distribution at steady state in morbidly obese human at 4 mg/kg, iv administered as single dose 30 mins infusion; type: ADME, organism-based; parameters: dose 4 mg/kg, route intravenous; details: in vivo, read-out: Vdss
[19] = Half life in healthy human subjects at 10 mg/kg, iv administered as 30 mins infusion every 24 hrs measured on day 1; type: ADME, organism-based; parameters: dose 10 mg/kg, route intravenous; details: in vivo
Homo sapiens [20] = assay: Unbound clearance in healthy human at 8 mg/kg, iv administered as 30 mins infusion every 24 hrs measured on day 7; type: ADME, organism-based; parameters: dose 8 mg/kg, route intravenous; details: in vivo
[21] = AUC (0 to infinity) in healthy human subjects at 6 mg/kg, iv administered as 30 mins infusion every 24 hrs measured on day 4; type: ADME, organism-based; parameters: time infinity, dose 6 mg/kg, route intravenous; details: plasma
[22] = Mean residence time in healthy human at 4 mg/kg, iv administered as single dose 30 mins infusion; type: ADME, organism-based; parameters: dose 4 mg/kg, route intravenous; details: in vivo
[23] = Volume of distribution at steady state in adult human with hepatic impairment at 6 mg/kg, iv administered as single dose 30 mins infusion; type: ADME, organism-based; parameters: dose 6 mg/kg, route intravenous; details: in vivo, read-out: Vdss
Enterococcus = assay: Antimicrobial activity against Enterococcus; type: functional
[24] = Cmax in healthy human subjects at 12 mg/kg, iv administered as 30 mins infusion every 24 hrs measured on day 4; type: ADME, organism-based; parameters: dose 12 mg/kg, route intravenous; details: in vivo
[25] = Half life in morbidly obese adult human at 4 mg/kg, iv administered as single dose 30 mins infusion; type: ADME, organism-based; parameters: dose 4 mg/kg, route intravenous; details: in vivo
Homo sapiens [26] = assay: Cmax in healthy human subjects at 6 mg/kg, iv administered as 30 mins infusion every 24 hrs measured on day 4; type: ADME, organism-based; parameters: dose 6 mg/kg, route intravenous; details: in vivo
[27] = Clearance in healthy human at 8 mg/kg, iv administered as 30 mins infusion every 24 hrs measured on day 1; type: ADME, organism-based; parameters: dose 8 mg/kg, route intravenous; details: in vivo
[28] = Cmax in healthy human at 4 mg/kg, iv administered as single dose 30 mins infusion; type: ADME, organism-based; parameters: dose 4 mg/kg, route intravenous; details: in vivo
[29] = Clearance in healthy human subjects at 6 mg/kg, iv administered as 30 mins infusion every 24 hrs measured on day 4; type: ADME, organism-based; parameters: dose 6 mg/kg, route intravenous; details: in vivo
[30] = Clearance in young healthy human at 4 mg/kg, iv administered as single dose 30 mins infusion; type: ADME, organism-based; parameters: dose 4 mg/kg, route intravenous; details: in vivo
[31] = Renal clearance in young healthy human at 4 mg/kg, iv administered as single dose 30 mins infusion; type: ADME, organism-based, Kidney; parameters: dose 4 mg/kg, route intravenous; details: in vivo, read-out: CL_renal (converted)
[32] = Cmax in healthy human subjects at 12 mg/kg, iv administered as 30 mins infusion every 24 hrs measured on day 14; type: ADME, organism-based; parameters: dose 12 mg/kg, route intravenous; details: in vivo
[33] = AUC (0 to infinity) in healthy human subjects at 8 mg/kg, iv administered as 30 mins infusion every 24 hrs measured on day 4; type: ADME, organism-based; parameters: dose 8 mg/kg, route intravenous, time infinity; details: plasma
[34] = Half life in healthy human at 8 mg/kg, iv administered as 30 mins infusion every 24 hrs measured on day 7; type: ADME, organism-based; parameters: dose 8 mg/kg, route intravenous; details: in vivo
[35] = Apparent volume of distribution during terminal phase in healthy human at 6 mg/kg, iv administered as 30 mins infusion every 24 hrs measured on day 1; type: ADME, organism-based; parameters: dose 6 mg/kg, route intravenous; details: in vivo
[36] = Cmax in healthy adult human at 6 mg/kg, iv administered as single dose 30 mins infusion; type: ADME, organism-based; parameters: dose 6 mg/kg, route intravenous; details: in vivo
[37] = AUC (0 to infinity) in healthy human at 6 mg/kg, iv administered as 30 mins infusion every 24 hrs measured on day 7; type: ADME, organism-based; parameters: time infinity, dose 6 mg/kg, route intravenous; details: plasma
[38] = Drug excretion in adult human with hepatic impairment urine assessed as unchanged drug at 6 mg/kg, iv administered as single dose 30 mins infusion; type: ADME, organism-based; parameters: dose 6 mg/kg, route intravenous; details: read-out: Drug uptake
[39] = Clearance in healthy human subjects at 10 mg/kg, iv administered as 30 mins infusion every 24 hrs measured on day 1; type: ADME, organism-based; parameters: dose 10 mg/kg, route intravenous; details: in vivo
[40] = Half life in healthy human subjects at 6 mg/kg, iv administered as 30 mins infusion every 24 hrs measured on day 4; type: ADME, organism-based; parameters: dose 6 mg/kg, route intravenous; details: in vivo
[41] = AUC (0 to infinity) in healthy human subjects at 12 mg/kg, iv administered as 30 mins infusion every 24 hrs measured on day 1; type: ADME, organism-based; parameters: time infinity, dose 12 mg/kg, route intravenous; details: plasma
[42] = AUC (0 to infinity) in healthy human at 4 mg/kg, iv administered as single dose 30 mins infusion; type: ADME, organism-based; parameters: time infinity, dose 4 mg/kg, route intravenous; details: plasma
[43] = Drug excretion in young healthy human urine assessed as unchanged drug at 4 mg/kg, iv administered as single dose 30 mins infusion; type: ADME, organism-based; parameters: dose 4 mg/kg, route intravenous; details: read-out: Drug uptake
[44] = Cmax in healthy human at 6 mg/kg, iv administered as 30 mins infusion every 24 hrs measured on day 1; type: ADME, organism-based; parameters: dose 6 mg/kg, route intravenous; details: in vivo
[45] = Drug excretion in old healthy human urine assessed as unchanged drug at 4 mg/kg, iv administered as single dose 30 mins infusion; type: ADME, organism-based; parameters: dose 4 mg/kg, route intravenous; details: read-out: Drug uptake
[46] = Volume of distribution at steady state in old healthy human at 4 mg/kg, iv administered as single dose 30 mins infusion; type: ADME, organism-based; parameters: dose 4 mg/kg, route intravenous; details: in vivo, read-out: Vdss
[47] = AUC (0 to infinity) in old healthy human at 4 mg/kg, iv administered as single dose 30 mins infusion; type: ADME, organism-based; parameters: dose 4 mg/kg, route intravenous, time infinity; details: plasma

With `CCCCCCCCCC(=O)N[C@@H](Cc1c[nH]c2ccccc12)C(=O)N[C@H](CC(N)=O)C(=O)N[C@@H](CC(=O)O)C(=O)N[C@@H]1C(=O)NCC(=O)N[C@@H](CCCN)C(=O)N[C@@H](CC(=O)O)C(=O)N[C@H](C)C(=O)N[C@@H](CC(=O)O)C(=O)NCC(=O)N[C@H](CO)C(=O)N[C@@H]([C@H](C)CC(=O)O)C(=O)N[C@@H](CC(=O)c2ccccc2N)C(=O)O[C@@H]1C` the half-life [1] was 7.3 h, the AUC(0-inf) [2] was 867 µg·h/mL and the AUC(0-inf) [3] was 548 µg·h/mL. It also gave a Vd [4] of 0.101 L/kg, a Cmax [5] of 106 µg/mL and a clearance [6] of 0.168 mL/min/kg. It also gave a clearance [7] of 0.118 mL/min/kg, a half-life [8] of 8.3 h and a Vd [9] of 0.15 L/kg. The concentration at 24 h [10] was 5.88 µg/mL, the half-life [11] was 11.8 h and the half-life [12] was 7.8 h. The clearance [13] was 0.143 mL/min/kg, the Vd [14] was 0.08 L/kg and the Vd [15] was 0.0992 L/kg. It also gave a half-life [16] of 6.83 h, a Vd (Homo sapiens [17]) of 0.1059 L/kg and a Vd [18] of 0.09 L/kg. The half-life [19] was 8.4 h, the CL (Homo sapiens [20]) was 0.682 mL/min/kg and the AUC(0-inf) [21] was 632 µg·h/mL. The MRT [22] was 10.9 h, the Vd [23] was 0.08 L/kg and the MIC90 (Enterococcus) was 2 mg/L (≈ 1.23 µM). For the same compound, the Cmax [24] was 184 µg/mL, the half-life [25] was 8.12 h and the Cmax (Homo sapiens [26]) was 93.9 µg/mL. It also gave a clearance [27] of 0.12 mL/min/kg, a Cmax [28] of 77.5 µg/mL and a clearance [29] of 0.152 mL/min/kg. The clearance [30] was 0.252 mL/min/kg, the CL renal at 0.5 h [31] was 0.12 mL/min/kg and the Cmax [32] was 182 µg/mL. It also gave an AUC(0-inf) [33] of 858 µg·h/mL, a half-life [34] of 9 h and a Vd [35] of 0.096 L/kg. For the same compound, the Cmax [36] was 82 µg/mL, the AUC(0-inf) [37] was 747 µg·h/mL and the dose excreted at 0.5 h [38] was 49.3%. The clearance [39] was 0.165 mL/min/kg, the half-life [40] was 7.9 h and the AUC(0-inf) [41] was 1270 µg·h/mL. For the same compound, the AUC(0-inf) [42] was 530 µg·h/mL, the dose excreted at 0.5 h [43] was 42.3% and the Cmax [44] was 86.4 µg/mL. The dose excreted at 0.5 h [45] was 34.3%, the Vd [46] was 0.15 L/kg and the AUC(0-inf) [47] was 474 µg·h/mL.
